# pKd: −log10 of the molar value.
# Target: T1, AHR2-2 (tomcod AHR2) (Microgadus tomcod, UniProt B6E9W5)
# T1 sequence (B6E9W5 1-1104): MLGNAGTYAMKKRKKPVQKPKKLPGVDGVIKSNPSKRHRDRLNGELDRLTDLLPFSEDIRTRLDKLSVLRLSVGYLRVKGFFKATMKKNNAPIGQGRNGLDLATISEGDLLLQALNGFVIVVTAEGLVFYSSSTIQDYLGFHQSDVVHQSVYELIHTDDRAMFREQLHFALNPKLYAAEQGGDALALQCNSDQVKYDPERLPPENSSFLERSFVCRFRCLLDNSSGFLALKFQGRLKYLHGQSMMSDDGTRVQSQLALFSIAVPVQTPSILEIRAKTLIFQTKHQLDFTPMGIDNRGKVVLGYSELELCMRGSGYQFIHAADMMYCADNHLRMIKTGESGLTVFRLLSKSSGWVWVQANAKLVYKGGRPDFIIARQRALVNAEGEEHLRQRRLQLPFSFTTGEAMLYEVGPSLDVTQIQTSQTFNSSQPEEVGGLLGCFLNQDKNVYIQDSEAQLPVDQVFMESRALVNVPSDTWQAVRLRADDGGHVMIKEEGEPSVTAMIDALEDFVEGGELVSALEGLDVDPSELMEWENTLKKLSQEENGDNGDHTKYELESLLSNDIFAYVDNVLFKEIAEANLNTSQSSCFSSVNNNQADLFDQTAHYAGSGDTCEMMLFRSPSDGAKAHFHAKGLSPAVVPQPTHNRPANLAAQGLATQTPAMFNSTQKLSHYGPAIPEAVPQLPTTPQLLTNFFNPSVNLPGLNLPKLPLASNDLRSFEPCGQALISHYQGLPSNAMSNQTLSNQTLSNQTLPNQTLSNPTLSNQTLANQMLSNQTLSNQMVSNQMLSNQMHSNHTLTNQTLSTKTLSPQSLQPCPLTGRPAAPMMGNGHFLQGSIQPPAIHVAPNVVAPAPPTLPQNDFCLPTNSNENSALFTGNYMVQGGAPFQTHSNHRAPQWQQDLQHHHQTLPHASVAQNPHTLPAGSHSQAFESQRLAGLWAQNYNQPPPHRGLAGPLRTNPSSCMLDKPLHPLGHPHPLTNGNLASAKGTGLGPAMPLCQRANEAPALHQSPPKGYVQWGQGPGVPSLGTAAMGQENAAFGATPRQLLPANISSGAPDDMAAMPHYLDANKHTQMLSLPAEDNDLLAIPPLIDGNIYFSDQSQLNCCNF
# Assay: saturation binding of [3H]TCDD, velocity sedimentation on sucrose gradients
# Details: labelled compound; 0.1 to 12 nM [3H]TCDD; apparent equilibrium constant
smiles,measurement,value
"Clc1cc2c(cc1Cl)Oc1cc(Cl)c(Cl)cc1O2 [TCDD, 2,3,7,8-tetrachlorodibenzo-p-dioxin]",pKd,8.90

# — paper PMC3246799 (Science (New York, N.Y.), 2011)
